Consider twelve molecules from BindingDB's records for doi:10.1124/mol.59.3.420 (The R. W. Johnson Pharmaceutical Research Institute, 2001).

A value given as a limit tells only on which side of the number the result lay.

Experiment [1] concerns the target Histamine H4 receptor (Homo sapiens, UniProt Q9H3N8).
The target in experiment [2] is Histamine H3 receptor (Homo sapiens, UniProt Q9Y5N1).
Chain of Histamine H3 receptor (Q9Y5N1 whole entry): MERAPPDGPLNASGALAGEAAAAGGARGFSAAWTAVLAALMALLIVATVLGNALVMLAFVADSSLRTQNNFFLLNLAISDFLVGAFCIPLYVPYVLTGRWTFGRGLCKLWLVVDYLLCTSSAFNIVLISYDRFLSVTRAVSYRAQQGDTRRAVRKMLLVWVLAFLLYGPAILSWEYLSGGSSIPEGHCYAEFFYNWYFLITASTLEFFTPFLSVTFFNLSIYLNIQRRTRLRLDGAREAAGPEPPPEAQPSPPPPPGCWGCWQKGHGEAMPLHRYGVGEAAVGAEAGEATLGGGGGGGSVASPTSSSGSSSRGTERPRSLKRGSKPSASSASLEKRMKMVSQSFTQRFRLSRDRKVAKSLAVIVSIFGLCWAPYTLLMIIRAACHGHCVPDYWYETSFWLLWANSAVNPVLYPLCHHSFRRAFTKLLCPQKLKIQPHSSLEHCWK

Chain of Histamine H4 receptor (Q9H3N8 whole entry): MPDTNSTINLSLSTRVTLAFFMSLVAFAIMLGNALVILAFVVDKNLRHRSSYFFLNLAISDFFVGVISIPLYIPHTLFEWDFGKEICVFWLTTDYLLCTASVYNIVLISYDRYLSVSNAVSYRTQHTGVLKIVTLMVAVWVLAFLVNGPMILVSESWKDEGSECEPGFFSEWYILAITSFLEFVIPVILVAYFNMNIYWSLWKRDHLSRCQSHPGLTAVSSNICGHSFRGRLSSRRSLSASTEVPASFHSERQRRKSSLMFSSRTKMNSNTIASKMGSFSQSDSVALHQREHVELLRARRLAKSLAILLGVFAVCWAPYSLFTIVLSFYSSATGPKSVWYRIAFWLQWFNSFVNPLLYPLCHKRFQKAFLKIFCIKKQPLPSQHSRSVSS

A word on the Ki: it is the equilibrium dissociation constant of an inhibitor or competing ligand from its target. High values mean a looser hold on the target, low ones a stronger hold on the target. Regarding `CN/C(=N/CCSCc1nc[nH]c1C)NC#N`, the Ki in experiment [1] is more than 10000 nM.
Take `CN/C([CH-][N+](=O)[O-])=[NH+]\CCSCc1ccc(CN(C)C)o1`: the Ki in experiment [2] and in experiment [1] was more than 10000 nM in each case.
For the molecule `C[C@@H](N)Cc1c[nH]cn1`, the affinity in experiment [1], expressed as Ki, was 146 nM.
For `CNC(=S)NCCCCc1cnc[nH]1` [1-[4-(1H-imidazol-5-yl)butyl]-3-methylthiourea], the Ki in experiment [2] was 84 nM.
In the case of `N=C(N)SCCc1cnc[nH]1` [2-(3H-imidazol-4-yl)ethylsulfanylmethanimidamide], the values for the Ki in experiment [2] and in experiment [1] were 0.3 nM and 2.7 nM, respectively.
Turning to `Cc1[nH]cnc1CSCCNC(=N)NCCCc1c[nH]cn1` [2-[3-(1H-imidazol-5-yl)propyl]-1-(2-{[(5-methyl-1H-imidazol-4-yl)methyl]sulfanyl}ethyl)guanidine], the results for the Ki in experiment [2] and in experiment [1] were 67 nM and 12.3 nM, respectively.
The molecule `c1nc(CC2CCNCC2)c[nH]1` [4-(1H-imidazol-4-ylmethyl)piperidine] returned a Ki in experiment [1] of 9 nM.
The molecule `CN1CCC(=C2c3ccccc3C=Cc3ccccc32)CC1` [5-(1-methylpiperidylidene-4)-5H-dibenzo(a,d)cyclopheptene] yielded a Ki in experiment [1] of more than 10000 nM.
As for `CNCCc1c[nH]cn1` [N(alpha)-Methylhistamine], the values for the inhibition constant (Ki) in experiment [2] and in experiment [1] were 0.5 nM and 23 nM, respectively.
In turn, `N#Cc1ccc(OCCCN2CCCCC2)cc1` [UCL-2138] returned a Ki in experiment [1] of more than 10000 nM.
Turning to `NC(=NCc1ccc(Cl)cc1)SCCCc1cnc[nH]1` [VUF 9153], the Ki in experiment [1] was 12.8 nM. This lies in the double-digit nanomolar range.
Consider `CN(C)CCCSC(=N)N` [[3-(carbamimidoylsulfanyl)propyl]dimethylamine], for which, in experiment [2], the affinity, expressed as Ki, was 825 nM.
